According to patent publication US20240368135A1 (VERTEX PHARMACEUTICALS INCORPORATED, priority 2021, published 2024):
Read-outs that look alike come from different tables or passages of the source.

Target: human NaV 1.8 (Homo sapiens, UniProt Q9Y5Y9)
Experiment: E-VIPR assay detecting and measuring NaV inhibition properties
Assay type: cell-based
Settings: HEK cells expressing truncated human NaV 1.8
Procedure, shortened: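 HEK cells expressing truncated, fully active human NaV1.8, with KIR2.1 BacMam co-transduction, were loaded with CC2-DMPE/DiSBAC6(3) voltage-sensing dyes for 20 min at room temperature. Compounds were tested in 11-point 3-fold dilutions (300 nM top final), optionally with 25% human serum, under electrical stimulation with FRET read-out.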

[1] = no human serum, read-out: IC50 in the E-VIPR Assay

Sequence of human NaV 1.8 (Q9Y5Y9 126-399 limits assumed): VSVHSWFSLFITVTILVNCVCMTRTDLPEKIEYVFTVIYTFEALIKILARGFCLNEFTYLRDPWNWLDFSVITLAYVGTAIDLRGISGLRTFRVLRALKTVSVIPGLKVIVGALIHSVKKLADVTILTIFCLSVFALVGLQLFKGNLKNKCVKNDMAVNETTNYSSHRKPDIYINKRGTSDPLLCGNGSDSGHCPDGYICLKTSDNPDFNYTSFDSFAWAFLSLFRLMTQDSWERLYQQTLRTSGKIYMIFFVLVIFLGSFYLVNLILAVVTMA
Sequence of human NaV 1.8 (Q9Y5Y9 660-890 limits assumed): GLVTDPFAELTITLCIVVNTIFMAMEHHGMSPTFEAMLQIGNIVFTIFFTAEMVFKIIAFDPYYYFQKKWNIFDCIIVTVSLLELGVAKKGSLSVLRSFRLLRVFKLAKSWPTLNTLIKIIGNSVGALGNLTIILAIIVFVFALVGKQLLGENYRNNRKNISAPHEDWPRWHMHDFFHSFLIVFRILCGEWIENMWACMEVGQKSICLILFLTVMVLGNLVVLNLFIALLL
Sequence of human NaV 1.8 (Q9Y5Y9 1148-1722 limits assumed): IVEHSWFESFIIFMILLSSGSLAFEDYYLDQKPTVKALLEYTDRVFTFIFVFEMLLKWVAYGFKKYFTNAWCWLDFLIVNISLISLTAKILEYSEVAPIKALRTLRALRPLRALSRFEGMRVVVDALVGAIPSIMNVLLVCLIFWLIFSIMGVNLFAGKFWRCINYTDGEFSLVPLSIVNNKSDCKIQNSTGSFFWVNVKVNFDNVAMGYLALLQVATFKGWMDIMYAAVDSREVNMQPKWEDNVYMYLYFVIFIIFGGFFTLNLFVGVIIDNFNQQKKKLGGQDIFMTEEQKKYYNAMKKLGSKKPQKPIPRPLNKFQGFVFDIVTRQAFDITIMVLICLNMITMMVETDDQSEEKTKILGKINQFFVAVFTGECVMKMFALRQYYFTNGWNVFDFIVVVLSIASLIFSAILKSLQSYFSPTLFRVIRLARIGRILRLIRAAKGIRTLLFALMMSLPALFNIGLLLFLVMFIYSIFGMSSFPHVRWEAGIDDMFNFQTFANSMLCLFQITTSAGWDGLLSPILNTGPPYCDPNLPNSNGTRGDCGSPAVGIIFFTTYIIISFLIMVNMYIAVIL

SMILES | IC50 [1] | IC50 (in the presence of human serum (compound numbers followed by *), read-out: IC50 in the E-VIPR Assay, performed in the presence of human serum)
Cc1nn(C(F)F)cc1NC(=O)[C@@H]1O[C@@](C)(C(F)(F)F)[C@@H](C)[C@H]1c1ccc(F)c(F)c1C(C)O (relative stereo) [Compound 680, rac-(2R*,3S*,4S*,5R*)-3-(3,4-difluoro-2-(1-hydroxyethyl)phenyl)-N-(1-(difluoromethyl)-3-methyl-1H-pyrazol-4-yl)-4,5-dimethyl-5-(trifluoromethyl)tetrahydrofuran-2-carboxamide] | 10 to 100 nM | 
COc1c([C@H]2[C@H](C(=O)Nc3cnc(CCO)n3C)O[C@@](C)(C(F)(F)F)[C@H]2C)ccc(F)c1F [Compound 445, (2R,3S,4S,5R)-3-(3,4-difluoro-2-methoxyphenyl)-N-(2-(2-hydroxyethyl)-1-methyl-1H-imidazol-5-yl)-4,5-dimethyl-5-(trifluoromethyl)tetrahydrofuran-2-carboxamide] | ≥ 1000 nM | 
COc1c([C@H]2[C@H](C(=O)Nc3ccnc(N4C(=O)CN(C)C[C@@H]4C)c3)O[C@@](C)(C(F)(F)F)[C@H]2C)ccc(F)c1F [Compound 469, (2R,3S,4S,5R)-3-(3,4-difluoro-2-methoxyphenyl)-N-(2-((S)-2,4-dimethyl-6-oxopiperazin-1-yl)pyridin-4-yl)-4,5-dimethyl-5-(trifluoromethyl)tetrahydrofuran-2-carboxamide] | < 10 nM | 
Cc1nn(C(F)F)cc1NC(=O)[C@@H]1O[C@@](C)(C(F)(F)F)[C@@H](C)[C@H]1c1ccc(F)c(F)c1CN1CCN(C)CC1 [Compound 674, (2R,3S,4S,5R)-3-(3,4-difluoro-2-((4-methylpiperazin-1-yl)methyl)phenyl)-N-(1-(difluoromethyl)-3-methyl-1H-pyrazol-4-yl)-4,5-dimethyl-5-(trifluoromethyl)tetrahydrofuran-2-carboxamide] | 100 to 1000 nM | 
C[C@H]1[C@@H](c2ccc(F)c(F)c2OCC2COC2)[C@H](C(=O)Nc2cccnc2)O[C@@]1(C)C(F)(F)F [Compound 578, (2R,3S,4S,5R)-3-(3,4-difluoro-2-(oxetan-3-ylmethoxy)phenyl)-4,5-dimethyl-N-(pyridin-3-yl)-5-(trifluoromethyl)tetrahydrofuran-2-carboxamide] | 10 to 100 nM | 
C[C@H]1[C@@H](c2ccc(F)c(F)c2OC(F)F)[C@H](C(=O)Nc2ccc(C(N)=O)nc2)O[C@@]1(C)C(F)(F)F (single isomer, unassigned) [Compound 94] | < 10 nM | 
COc1c([C@H]2[C@H](C(=O)Nc3ccnc(C(CO)N(C)C)c3)O[C@@](C)(C(F)(F)F)[C@H]2C)ccc(F)c1F (single isomer, unassigned) [Compound 368] | < 10 nM | 
COc1c([C@H]2[C@H](C(=O)Nc3ccnc([C@@H](O)[C@H](C)O)c3)O[C@@](C)(C(F)(F)F)[C@H]2C)ccc(F)c1F (single isomer, unassigned) [Compound 204, rel-(2R*,3S*,4S*,5R*)-3-(3,4-difluoro-2-methoxyphenyl)-N-(2-((1R,2S)-1,2-dihydroxypropyl)pyridin-4-yl)-4,5-dimethyl-5-(trifluoromethyl)tetrahydrofuran-2-carboxamide] | < 10 nM | 
Cc1c(F)ccc([C@@H]2[C@@H](C(=O)Nc3ccn(C)c(=O)c3)O[C@](C)(C(F)(F)F)[C@@H]2C)c1OC(F)F (stereo in doubt) [Compound 99, rel-(2S,3R,4R,5S)-3-(2-(difluoromethoxy)-4-fluoro-3-methylphenyl)-4,5-dimethyl-N-(1-methyl-2-oxo-1,2-dihydropyridin-4-yl)-5-(trifluoromethyl)tetrahydrofuran-2-carboxamide] | ≥ 1000 nM | 
COc1c([C@H]2[C@H](C(=O)Nc3ccnc(C(F)CO)c3)O[C@@](C)(C(F)(F)F)[C@H]2C)ccc(F)c1F (single isomer, unassigned) [Compound 439, rel-(2R*,3S*,4S*,5R*)-3-(3,4-difluoro-2-methoxyphenyl)-N-(2-(1-fluoro-2-hydroxyethyl)pyridin-4-yl)-4,5-dimethyl-5-(trifluoromethyl)tetrahydrofuran-2-carboxamide] | < 10 nM | 
COc1c([C@H]2[C@H](C(=O)Nc3ccnc(-n4ccnc4C)c3)O[C@@](C)(C(F)(F)F)[C@H]2C)ccc(F)c1F [Compound 316, (2R,3S,4S,5R)-3-(3,4-difluoro-2-methoxyphenyl)-4,5-dimethyl-N-(2-(2-methyl-1H-imidazol-1-yl)pyridin-4-yl)-5-(trifluoromethyl)-tetrahydrofuran-2-carboxamide] | < 10 nM | 
COc1c([C@H]2[C@H](C(=O)Nc3ccnc(N4CC[C@H](O)C4=O)c3)O[C@@](C)(C(F)(F)F)[C@H]2C)ccc(F)c1F [Compound 473, (2R,3S,4S,5R)-3-(3,4-difluoro-2-methoxyphenyl)-N-(2-((S)-3-hydroxy-2-oxopyrrolidin-1-yl)pyridin-4-yl)-4,5-dimethyl-5-(trifluoromethyl)tetrahydrofuran-2-carboxamide] | 10 to 100 nM | 
COc1c([C@H]2[C@H](C(=O)Nc3cnc4nncn4c3)O[C@@](C)(C(F)(F)F)[C@H]2C)ccc(F)c1F [Compound 388, (2R,3S,4S,5R)-N-([1,2,4]triazolo[4,3-a]pyrimidin-6-yl)-3-(3,4-difluoro-2-methoxyphenyl)-4,5-dimethyl-5-(trifluoromethyl)tetrahydrofuran-2-carboxamide] | 10 to 100 nM | 
C[C@@H]1[C@H](c2ccc(F)c(F)c2OC(F)F)[C@@H](C(=O)Nc2ccnc(CC(C)(C)O)c2)O[C@]1(C)C(F)(F)F (single isomer, unassigned) [Compound 463] | ≥ 1000 nM | 
COc1c([C@H]2[C@H](C(=O)Nc3c(C)ncn3C)O[C@@](C)(C(F)(F)F)[C@H]2C)ccc(F)c1F [Compound 319, (2R,3S,4S,5R)-3-(3,4-difluoro-2-methoxyphenyl)-N-(1,4-dimethyl-1H-imidazol-5-yl)-4,5-dimethyl-5-(trifluoromethyl)-tetrahydrofuran-2-carboxamide] | ≥ 1000 nM | 
Cc1c(F)ccc(C2C(C(=O)Nc3ccn(C)c(=O)c3)OC(C)(C(F)(F)F)C2C)c1OC(F)F (stereo not shown) [Compound 98, 3-[2-(difluoromethoxy)-4-fluoro-3-methyl-phenyl]-4,5-dimethyl-N-(1-methyl-2-oxo-4-pyridyl)-5-(trifluoromethyl)tetrahydrofuran-2-carboxamide] | < 10 nM | 
CCOc1c([C@@H]2[C@@H](C(=O)Nc3cncc(S(C)(=O)=O)c3)O[C@](C)(C(F)(F)F)[C@@H]2C)ccc(F)c1F (stereo in doubt) [Compound 106, rel-(2S,3R,4R,5S)-3-(2-ethoxy-3,4-difluorophenyl)-4,5-dimethyl-N-(5-(methylsulfonyl)pyridin-3-yl)-5-(trifluoromethyl)tetrahydrofuran-2-carboxamide] | 100 to 1000 nM | 
COc1c([C@H]2[C@H](C(=O)Nc3ccnc(N4C(=O)CN(C)C[C@H]4C)c3)O[C@@](C)(C(F)(F)F)[C@H]2C)ccc(F)c1F [Compound 465, (2R,3S,4S,5R)-3-(3,4-difluoro-2-methoxyphenyl)-N-(2-((R)-2,4-dimethyl-6-oxopiperazin-1-yl)pyridin-4-yl)-4,5-dimethyl-5-(trifluoromethyl)tetrahydrofuran-2-carboxamide] | < 10 nM | 
Cc1nocc1NC(=O)[C@@H]1O[C@@](C)(C(F)(F)F)[C@@H](C)[C@H]1c1ccc(F)c(F)c1OCCN1CC(C(F)F)C1 [Compound 629, (2R,3S,4S,5R)-3-(2-(2-(3-(difluoromethyl)azetidin-1-yl)ethoxy)-3,4-difluorophenyl)-4,5-dimethyl-N-(3-methylisoxazol-4-yl)-5-(trifluoromethyl)tetrahydrofuran-2-carboxamide] | 10 to 100 nM | 
COc1c(C2C(C(=O)Nc3ccnc(S(=O)(=O)CCO)c3)OC(C)(C(F)(F)F)C2C)ccc(F)c1F (stereo not shown) [Compound 62, 3-(3,4-difluoro-2-methoxy-phenyl)-N-[2-(2-hydroxyethylsulfonyl)-4-pyridyl]-4,5-dimethyl-5-(trifluoromethyl)tetrahydrofuran-2-carboxamide] | < 10 nM | 
Cc1nn(C(F)F)cc1NC(=O)[C@@H]1O[C@@](C)(C(F)(F)F)[C@@H](C)[C@H]1c1ccc(F)c(F)c1CN1CC(O)C1 (racemic) [Compound 673, rac-(2R,3S,4S,5R)-3-(3,4-difluoro-2-((3-hydroxyazetidin-1-yl)methyl)phenyl)-N-(1-(difluoromethyl)-3-methyl-1H-pyrazol-4-yl)-4,5-dimethyl-5-(trifluoromethyl)tetrahydrofuran-2-carboxamide] | 100 to 1000 nM | 
CCOc1c([C@H]2[C@H](C(=O)Nc3cncc(S(C)(=O)=O)c3)O[C@@](C)(C(F)(F)F)[C@H]2C)ccc(F)c1F (stereo in doubt) [Compound 107, rel-(2R,3S,4S,5R)-3-(2-ethoxy-3,4-difluorophenyl)-4,5-dimethyl-N-(5-(methylsulfonyl)pyridin-3-yl)-5-(trifluoromethyl)tetrahydrofuran-2-carboxamide] | < 10 nM | 
COc1c(C2C(C(=O)Nc3ccn(C)c(=O)c3)OC(C)(C(F)(F)F)C2C)ccc(F)c1F (single isomer, unassigned) [Compound 27, 3-(3,4-difluoro-2-methoxy-phenyl)-4,5-dimethyl-N-(1-methyl-2-oxo-4-pyridyl)-5-(trifluoromethyl)tetrahydrofuran-2-carboxamide] |  | ≥ 1000 nM
COc1c([C@H]2[C@H](C(=O)Nc3ccnc(O[C@H]4COC[C@H]4O)n3)O[C@@](C)(C(F)(F)F)[C@H]2C)ccc(F)c1F (single isomer, unassigned) [Compound 242, rel-(2R*,3S*,4S*,5R*)-3-(3,4-difluoro-2-methoxyphenyl)-N-(2-(((3S,4R)-4-hydroxytetrahydrofuran-3-yl)oxy)pyrimidin-4-yl)-4,5-dimethyl-5-(trifluoromethyl)tetrahydrofuran-2-carboxamide] | 10 to 100 nM | 
CCOc1c([C@H]2[C@H](C(=O)Nc3ccnc(S(C)(=N)=O)c3)O[C@@](C)(C(F)(F)F)[C@H]2C)ccc(F)c1C (single isomer, unassigned) [Compound 128] | < 10 nM | 
